Data reported in a compilation of properties of binary mixtures (doi:10.1016/j.molliq.2022.120536).

Experiment: xn = mol fraction of the nth substance listed
Details: 100 kPa

CC[N+](CC)(CC)CC.O=S(=O)([O-])C(F)(F)F + CC#N
electrical conductivity [S/m]
Details	x1 = 0.02	x1 = 0.05	x1 = 0.08	x1 = 0.0997	x1 = 0.1199	x1 = 0.1498	x1 = 0.2	x1 = 0.25	x1 = 0.2995
293.15 K	–	–	4.63	4.72	4.54	4.22	3.51	2.89	2.58
298.15 K	2.66	4.19	4.71	–	4.7	4.38	3.62	3.14	2.82
303.15 K	2.77	4.39	4.84	5	4.96	4.48	3.78	3.39	3.08
308.15 K	2.87	4.57	5.08	5.24	5.22	–	4.06	3.65	3.35
313.15 K	2.97	4.76	5.31	5.49	5.48	5.04	4.34	3.91	3.62
318.15 K	3.08	–	5.54	5.73	5.74	5.32	4.61	4.17	–
323.15 K	3.18	5.11	5.77	5.98	5.99	5.6	4.89	4.44	–
328.15 K	3.28	5.29	6	6.22	6.25	5.88	5.17	4.7	4.44
333.15 K	3.38	5.46	6.23	6.45	6.5	6.15	–	–	–
338.15 K	3.47	5.64	6.45	6.69	6.76	6.42	5.72	5.22	5.01
343.15 K	3.58	5.81	6.67	6.92	7.02	6.7	6	5.5	5.28
348.15 K	–	5.97	–	7.16	7.27	–	6.26	5.77	5.55
